Read-outs that look alike come from different tables or passages of the source.
What was measured:
[1] = system: rats after spinal nerve ligature; assay: Mono-neuropathic pain after spinal nerve ligature (Chung model), electronic von Frey; format: in vivo, rat
Protocol: Sprague Dawley rats (140-160 g body weight) were used for the following animal models. Sprague Dawley rats (140-160 g body weight) from a commercial breeder (Janvier, Genest St. Isle, France) were used. The animals were kept under standard conditions: light-dark rhythm (06:00 to 18:00 h light, 18:00 to 06:00 h dark), room temperature 19-23° C., relative air humidity 45-65%, air exchange 19 times per hour, air movement <0.2 m/s, free choice of tap water and standard feed, Macrolon Type 4 cages with 5 animals per cage. The solutions of the test substances and/or vehicles (10% […], 5% Cremophor EL, 5% glucose) were administered intravenously.
Under pentobarbital narcosis (Narcoren®, […] i.p., Merial GmbH, Hallbergmoos, Germany), the L5, L6 spinal nerves were firmly bound. The left L5 and L6 spinal nerves were exposed by removing a piece of paravertebral muscle and a portion of the left spinal process of the L5 lumbar vertebral body. The L5 and L6 spinal nerves were carefully isolated and bound with a firm ligature (NC silk, black, USP 5/0, metric 1, Braun Melsungen AG, Melsungen, Germany) (Kim and Chung, An experimental model for peripheral neuropathy produced by segmental spinal nerve ligature in the rat, Pain, 50, 1992, 355-363). After haemostasis was determined, the muscle and adjacent tissue were sutured and the wound closed by metal clamps. After a one-week recovery period the animals were placed in cages with a wire base closed to the top by a plastic hood for measurement of the mechanical allodynia. The animals were kept in this cage until their explorative behaviour had decreased.
The threshold for the tactile allodynia was measured by means of an electronic von Frey anaesthesiometer (Somedic AB, Malmö, Sweden). The animals were randomly divided into groups of 10 animals. Each group received an individual dose of test substance or vehicle and the measurements were conducted 0.5 h before application and at various times after intravenous administration. Both the ipsi- and the contra-lateral rear paw were tested. The median of five stimulations gave a measured data point. The data were determined as % maximum possible effect (% MPE) from the pre-tests of the Chung individual animals (=0% MPE) and the test values of an independent sham control group (=100% MPE). The effect of the test substance and the vehicle was calculated for each measurement time (i.e. 0.5, 1 and 3 h after application) as inter-individual % MPE value. […] The corresponding threshold values are given in gram (mean±SEM).

[2] = molecular target: T1, vanilloid receptor 1 (VR1/TRPV1) (Homo sapiens, UniProt Q8NER1); assay: FLIPR capsaicin assay; format: cell-based, human or rat
T1 construct: expressed in transfected cells; host or cells: CHO K1 cells (ECACC), stably transfected
From the text: (§1) The agonist or antagonist effect of substances can be determined at the vanilloid receptor 1 (VR1/TRPV1) of the human and rat species with the assay described below. Accordingly, the Ca^2+ influx through the channel is quantified by means of a Ca^2+-sensitive dye (Fluo-4, Molecular Probes Europe BV, Leiden, The Netherlands) in the fluorescent imaging plate reader (FLIPR, Molecular Devices, Sunnyvale, USA).
(§2) Chinese hamster ovary cells (CHO K1 cells, ECACC, England) are stably transfected with human or rat VR1 cDNA. For functional studies these cells are plated onto poly-D-lysine-coated black 96-hole plates with a clear base (BD Biosciences, Heidelberg, Germany) in a density of 25 000 cells/cavity. The cells are incubated overnight at 37° C. with 5% CO2 in culture medium (nutrient mixture Ham's F12, Gibco Invitrogen GmbH, Karlsruhe, Germany) with 10% vol. FBS (foetal bovine serum, Gibco Invitrogen GmbH, Karlsruhe, Germany) and 18 μg/ml of L-proline (Gibco Invitrogen GmbH, Karlsruhe, Germany). On the following day, the cells are laden with 2 μM Fluo-4 and 0.01% vol. Pluronic F127 (Molecular Probes Europe BV, Leiden, The Netherlands) in HBSS buffer (Hank's buffered saline solution, Gibco Invitrogen GmbH, Karlsruhe, Germany) for 30 min at 37° C. The plates are then washed 3 times in HBSS buffer and after further incubation for 15 minutes at room temperature are placed in the FLIPR for the Ca^2+ measurement. In this case, the Ca^2+-dependent fluorescence is measured before and after the addition of substances (λex=488 nm, λem=540 nm). Quantification occurs as a result of the measurement of the highest fluorescence intensity (FC, fluorescence counts) over time.
The FLIPR protocol consists of 2 substance additions. Test substances (10 μM) are firstly pipetted onto the cells and the Ca^2+ influx is compared to the control (capsaicin 10 μM). This gives the specification in % activation in relation to the Ca^2+ signal after adding 10 μM of capsaicin. After 5 minutes incubation 100 nM of capsaicin are applied and the influx of Ca^2+ likewise determined. Desensitising agonists and antagonists lead to a suppression of the Ca^2+ influx. Inhibition values [%] are calculated in comparison to the maximum achievable inhibition with a saturating concentration of […] or another reference antagonist. The test substance is added in different concentrations to determine the IC50 and functional Ki value ((f)Ki). Triple determinations (n=3) are conducted and these are repeated in at least one further independent experiment (N>=2). A capsaicin dose action curve is generated to incorporate the thus determined EC50 values into the associated (f)Ki determination. EC50/IC50 values are calculated using ‘Prism4’ software from GraphPad Software™ or with XLfit4™ (ID Business Solutions Ltd.). (f)Ki values are calculated in accordance with the modified Cheng-Prusoff equation (Cheng, Prusoff; Biochem. Pharmacol. 22, 3099-3108, 1973). Testing for non-specific inhibition of the fluorescence as a result of the substances is conducted by activating wild type CHO K1 cells incubated with the same test substances with ATP (10 μM final concentration).

[3] = molecular target: T2, human recombinant μ-opioid receptor (Homo sapiens, UniProt P35372); assay: Ki value at the μ-opioid receptor (Experiment 4); format: binding
T2 construct: expressed in transfected cells; host or cells: CHO-K1 cells (membrane preparation)

[4] = molecular target: T3, human VR1 (Homo sapiens, UniProt Q8NER1); assay: FLIPR pH assay; format: cell-based; conditions: for IC50: human VR1-transfected CHO K1 cells, 60 mM MES, pH 4.95, read-out: IC50 (pH)
T3 construct: expressed in transfected cells; host or cells: CHO K1 cells (ECACC), stably transfected
From the text: as §1, §2
In the pH assay, HBSS that now contains 60 mM MES instead of capsaicin is applied to human VR1-transfected CHO K1 cells (adjusted pH value of the addition solution is 4.95). Percentage inhibition and IC50 values are raised and evaluated as already described for the capsaicin test.

[5] = AMG 517 2.5 mg/kg i.v. group, Control (pre-test 0.5 h before application)
[6] = AMG 517 2.5 mg/kg i.v., 180 min
[7] = Oxycodone 2.5 mg/kg i.v. group, Control (pre-test 0.5 h before application)
[8] = Oxycodone 2.5 mg/kg i.v., 30 min
[9] = Oxycodone 2.5 mg/kg i.v., 60 min
[10] = Oxycodone 2.5 mg/kg i.v., 180 min
[11] = Oxycodone 5 mg/kg i.v. group, Control (pre-test 0.5 h before application)
[12] = Oxycodone 5 mg/kg i.v., 180 min
[13] = functional Ki, capsaicin 100 nM, VR1-transfected CHO K1 cells, modified Cheng-Prusoff, read-out: f(Ki) (VR1)
[14] = read-out: % inhibition (pH assay)

T3 sequence (Q8NER1 whole entry): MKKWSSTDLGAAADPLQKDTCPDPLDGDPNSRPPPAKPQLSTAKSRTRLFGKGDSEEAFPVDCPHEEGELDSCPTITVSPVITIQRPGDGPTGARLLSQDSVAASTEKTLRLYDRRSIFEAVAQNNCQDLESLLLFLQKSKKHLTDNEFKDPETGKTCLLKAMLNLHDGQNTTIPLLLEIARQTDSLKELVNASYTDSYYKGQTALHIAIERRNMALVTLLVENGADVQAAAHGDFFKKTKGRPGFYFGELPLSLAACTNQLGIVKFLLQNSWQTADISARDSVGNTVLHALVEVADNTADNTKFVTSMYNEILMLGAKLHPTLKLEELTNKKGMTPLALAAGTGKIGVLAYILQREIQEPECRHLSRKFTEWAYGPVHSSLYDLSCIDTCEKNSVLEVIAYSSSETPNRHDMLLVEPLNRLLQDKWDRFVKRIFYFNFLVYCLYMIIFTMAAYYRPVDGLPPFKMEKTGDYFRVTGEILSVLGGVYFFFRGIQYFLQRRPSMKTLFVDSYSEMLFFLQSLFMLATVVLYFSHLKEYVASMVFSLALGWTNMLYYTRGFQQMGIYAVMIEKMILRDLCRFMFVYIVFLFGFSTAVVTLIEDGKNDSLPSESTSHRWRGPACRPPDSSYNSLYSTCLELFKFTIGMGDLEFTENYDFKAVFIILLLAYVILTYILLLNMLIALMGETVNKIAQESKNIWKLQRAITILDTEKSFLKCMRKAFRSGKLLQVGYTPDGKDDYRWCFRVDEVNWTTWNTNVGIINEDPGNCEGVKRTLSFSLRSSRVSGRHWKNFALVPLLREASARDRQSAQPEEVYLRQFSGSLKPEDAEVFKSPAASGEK
T1 sequence (Q8NER1 whole entry): as above
T2 sequence (P35372 whole entry): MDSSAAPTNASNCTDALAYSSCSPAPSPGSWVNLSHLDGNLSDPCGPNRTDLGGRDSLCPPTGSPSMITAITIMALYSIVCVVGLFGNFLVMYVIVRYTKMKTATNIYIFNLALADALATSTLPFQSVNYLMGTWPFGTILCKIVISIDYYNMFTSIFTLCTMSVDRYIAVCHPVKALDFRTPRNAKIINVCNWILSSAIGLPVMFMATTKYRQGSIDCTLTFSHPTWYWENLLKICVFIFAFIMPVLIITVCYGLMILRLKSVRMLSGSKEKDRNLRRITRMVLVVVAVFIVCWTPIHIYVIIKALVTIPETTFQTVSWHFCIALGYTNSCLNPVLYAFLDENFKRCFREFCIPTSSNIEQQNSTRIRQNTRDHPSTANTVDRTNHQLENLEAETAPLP

CC(=O)Nc1nc2c(Oc3cc(-c4ccc(C(F)(F)F)cc4)ncn3)cccc2s1 [AMG 517]
pull-away threshold value, contra-lateral rear paw, mean [1, 5]: 49.9 gram
pull-away threshold value, ipsi-lateral rear paw, mean [1, 5]: 20.6 gram
pull-away threshold value, contra-lateral rear paw, mean ([1]; AMG 517 2.5 mg/kg i.v., 30 min): 50.9 gram
pull-away threshold value, ipsi-lateral rear paw, mean ([1]; AMG 517 2.5 mg/kg i.v., 30 min): 29.2 gram
pull-away threshold value, contra-lateral rear paw, mean ([1]; AMG 517 2.5 mg/kg i.v., 60 min): 49.6 gram
pull-away threshold value, ipsi-lateral rear paw, mean ([1]; AMG 517 2.5 mg/kg i.v., 60 min): 21.1 gram
pull-away threshold value, contra-lateral rear paw, mean [1, 6]: 51.7 gram
pull-away threshold value, ipsi-lateral rear paw, mean [1, 6]: 20.7 gram

COc1ccc2c3c1O[C@H]1C(=O)CC[C@@]4(O)[C@@H](C2)N(C)CC[C@]314 [Oxycodone, oxycodone]
pull-away threshold value, contra-lateral rear paw, mean [1, 7]: 54.0 gram
pull-away threshold value, ipsi-lateral rear paw, mean [1, 7]: 21.0 gram
pull-away threshold value, contra-lateral rear paw, mean [1, 8]: 67.8 gram
pull-away threshold value, ipsi-lateral rear paw, mean [1, 8]: 38.2 gram
pull-away threshold value, contra-lateral rear paw, mean [1, 9]: 53.1 gram
pull-away threshold value, ipsi-lateral rear paw, mean [1, 9]: 28.0 gram
pull-away threshold value, contra-lateral rear paw, mean [1, 10]: 52.5 gram
pull-away threshold value, ipsi-lateral rear paw, mean [1, 10]: 21.9 gram
pull-away threshold value, contra-lateral rear paw, mean [1, 11]: 52.6 gram
pull-away threshold value, ipsi-lateral rear paw, mean [1, 11]: 22.8 gram
pull-away threshold value, contra-lateral rear paw, mean ([1]; Oxycodone 5 mg/kg i.v., 30 min): 70.0 gram
pull-away threshold value, ipsi-lateral rear paw, mean ([1]; Oxycodone 5 mg/kg i.v., 30 min): 41.9 gram
pull-away threshold value, contra-lateral rear paw, mean ([1]; Oxycodone 5 mg/kg i.v., 60 min): 56.4 gram
pull-away threshold value, ipsi-lateral rear paw, mean ([1]; Oxycodone 5 mg/kg i.v., 60 min): 32.1 gram
pull-away threshold value, contra-lateral rear paw, mean [1, 12]: 51.4 gram
pull-away threshold value, ipsi-lateral rear paw, mean [1, 12]: 22.0 gram
efficacy (conclusion) ([1]; combination of two threshold doses of the same opioid, pull away increased on ipsi- and contra-lateral paw): additive antinociceptive efficacy

CC(C(=O)NCc1ccc(C(C)(C)C)nc1N1CCC(c2ccccc2)(N(C)C)CC1)c1ccc(NS(C)(=O)=O)c(F)c1 (stereo not shown) [[2], N-((6-tert-butyl-2-(4-(dimethylamino)-4-phenylpiperidin-1-yl)pyridin-3-yl)methyl)-2-(3-fluoro-4-(methylsulfonamido)phenyl)propanamide]
Ki [2]: 3.7 nM
Ki [3]: 350 nM
IC50 [4]: 368 nM

CC(C(=O)NCc1ccc(C(F)(F)F)nc1N1CCC(c2cccs2)(N(C)C)CC1)c1ccc(NS(C)(=O)=O)c(F)c1 (stereo not shown) [[3], N-((2-(4-(dimethylamino)-4-(thiophen-2-yl)piperidin-1-yl)-6-(trifluoromethyl)pyridin-3-yl)methyl)-2-(3-fluoro-4-(methylsulfonamido)phenyl)propanamide]
Ki [2]: 10.9 nM
Ki [3]: 119 nM
IC50 [4]: 335 nM

CC(C(=O)NCc1ccc(C(F)(F)F)nc1N1CCC(Cc2ccccc2)(N(C)C)CC1)c1ccc(NS(C)(=O)=O)c(F)c1 (stereo not shown) [[5], N-((2-(4-benzyl-4-(dimethylamino)piperidin-1-yl)-6-(trifluoromethyl)pyridin-3-yl)methyl)-2-(3-fluoro-4-(methylsulfonamido)phenyl)propanamide]
Ki [2]: 6.3 nM
Ki [3]: 715 nM
IC50 [4]: 111 nM

CC(C(=O)NCc1ccc(C(C)(C)C)nc1N1CCC(Cc2ccccc2)(N(C)C)CC1)c1ccc(NS(C)(=O)=O)c(F)c1 (stereo not shown) [[6], N-((2-(4-benzyl-4-(dimethylamino)piperidin-1-yl)-6-tert-butylpyridin-3-yl)methyl)-2-(3-fluoro-4-(methylsulfonamido)phenyl)propanamide]
Ki [2]: 2.6 nM
Ki [3]: 3130 nM
IC50 [4]: 1360 nM

Cc1cc(C(C)C(=O)NCc2ccc(C(F)(F)F)cc2N2CCC(Cc3ccccc3)(N(C)C)CC2)ccc1NS(C)(=O)=O (stereo not shown) [[8], N-(2-(4-benzyl-4-(dimethylamino)piperidin-1-yl)-4-(trifluoromethyl)benzyl)-2-(3-methyl-4-(methylsulfonamido)phenyl)propanamide]
Ki [2, 13]: 2.5 nM
Ki [3]: 22 nM
inhibition at 1 µM [4, 14]: 19%
inhibition at 5 µM [4, 14]: 36%
inhibition at 10 µM [4, 14]: 58%

CC(C(=O)NCc1ccc(C(F)(F)F)nc1N1CCC(Cc2cccc(F)c2)(N(C)C)CC1)c1ccc(NS(C)(=O)=O)c(F)c1 (stereo not shown) [[9], N-((2-(4-(dimethylamino)-4-(3-fluorobenzyl)piperidin-1-yl)-6-(trifluoromethyl)pyridin-3-yl)methyl)-2-(3-fluoro-4-(methylsulfonamido)phenyl)propanamide]
Ki [2]: 2.4 nM
Ki [3]: 2080 nM
IC50 [4]: 145 nM

Cc1cc(C(C)C(=O)NCc2ccc(C(F)(F)F)cc2N2CCC(Cc3cccc(F)c3)(N(C)C)CC2)ccc1NS(C)(=O)=O (stereo not shown) [[11], N-(2-(4-(dimethylamino)-4-(3-fluorobenzyl)piperidin-1-yl)-4-(trifluoromethyl)benzyl)-2-(3-methyl-4-(methylsulfonamido)phenyl)propanamide]
Ki [2, 13]: 1.6 nM
Ki [3]: 50 nM
inhibition at 5 µM [4, 14]: 35%
inhibition at 10 µM [4, 14]: 38%

Reference: US20090286831A1, “VR1 Receptor Ligands and u-Opioid Receptor Ligands for the Treatment of Pain” (priority 2006, published 2009)
